According to patent publication US11660280B2, “Treatment of drug resistant gliomas” (OKLAHOMA MEDICAL RESEARCH FOUNDATION, priority 2017, dated 2023):
pIC50: −log10 of the molar value. Counter-ions that a name gives are not always drawn.

What was measured:
[1] = rats; cited from earlier work
C6 gliomas = settings: rat C6 glioma, cited from earlier work
[2] = in vivo; cited from earlier work
[3] = patients; cited from earlier work
LN229 cells = assay: IC50 TMZ sensitivity (50% growth inhibition, cell counts); assay type: cell-based, human; settings: TMZ alone
Protocol: (§1) Culture Collection (ATCC; Manassas, VA, USA) (U-138—ATCC (CRL-HTB-16) glioblastoma; LN-18—ATCC (CRL-2610) glioblastoma; LN-229—ATCC (CRL-2611) glioblastoma; and T-98G—ATCC—(CRL-1690). U-251 GBM cells were obtained from Sigma-Aldrich (N#09063001 also known before as U-373 MG (ATCC® HTB-17)). G55 cells were obtained from Dr. Michael Sughrue, who was a resident at Univ. of California San Francisco (originally obtained from C. David James (Department of Neurological Surgery, UCSF, CA, USA), who characterized the cells).
(§2) Cells were cultured in Dulbecco's modified Eagle's medium (DMEM, Gibco BRL, Crand Island, N.Y., USA) supplemented with 10% fetal bovine serum (Gibco) in a standard humidified incubator at 37° C. under 5% CO2.
(§3) IC50 concentrations—Protocol for TMZ sensitivity determination. […] Briefly, cells were plated at 1×10^4 cells per well in 24-well, flat-bottomed plates and incubated with medium for 24 hrs. The cells were subsequently washed twice with medium and incubated further with fresh medium (control) or medium containing 0.1-1,000 μM of TMZ. Per each plate contained growth medium with +/−TMZ there was a plate with medium containing 1 mM OKN. After exposure to the various concentrations of TMZ for 72 hrs, cells were detached by trypsinization and the numbers counted. The experiments were repeated at least 4 times at each concentration.

T98 cells = assay: as above; assay type: cell-based, human; settings: TMZ alone
Protocol: as §1, §2, §3

MGMT [4] = assay: RT-PCR gene-fold changes in human GBM cells; assay type: cell-based
Protocol: (§4) Quantification of mRNA by real-time quantitative RT-PCR for HIF-1a, MPG and MGMT. Total RNA from all cell lines with all treatments was purified with an RNeasy Mini Kit (Qiagen), and quantified by spectrophotometry (Nanodrop). cDNA was synthesized using SuperScript IV Reverse Transcriptase Kit (Invitrogen).
(§5) Target gene mRNA was amplified and measured by Bio-Rad CFX96™ Real Time System. Gene expression was determined using the SYBR Select Master Mix (Applied Biosystems). […] The reaction is characterized by the point during cycling when amplification of PCR products is first detected, rather than the amount of PCR product accumulated after a fixed number of cycles. The higher the starting quantity of the template, the earlier a significant increase in fluorescence is observed. The threshold cycle is defined as the fractional cycle number at which fluorescence passes a fixed threshold above the baseline. Fluorescence data were converted into cycle threshold measurements exported to Microsoft Excel. Glyceraldehyde-3-phosphatase dehydrogenase (GAPDH) mRNA expression levels were used as the quantitative internal control. For precise quantification, the mRNA expression level of each sample was normalized using the expression of the GAPDH gene.
(§6) All primers were synthesized by Integrated DNA Technologies. The primers used were: […]
(§7) were used to amplify 603-bp transcripts of MPG [9].

MPG [5] = assay: RT-PCR gene-fold changes in human GBM cells; assay type: cell-based
Protocol: as §4, §5, §6, §7

HIF-1α [6] = assay: RT-PCR gene-fold changes in human GBM cells; assay type: cell-based
Protocol: as §4, §5, §6

LN18 cells = assay: IC50 TMZ sensitivity (50% growth inhibition, cell counts); assay type: cell-based; settings: Homo sapiens, LN-18, TMZ alone, 72 hrs
Protocol: as §1, §2, §3

U138 cells = assay: as above; assay type: cell-based; settings: Homo sapiens, TMZ alone, 72 hrs
Protocol: as §1, §2, §3

G55 cells = assay: as above; assay type: cell-based; settings: Homo sapiens, 72 h, TMZ alone
Protocol: as §1, §2, §3

U251 cells = assay: as above; assay type: cell-based; settings: Homo sapiens, U-251, TMZ alone, 72 hrs
Protocol: as §1, §2, §3

MGMT [7] = assay: ELISA protein level in human GBM cell lysates; assay type: cell-based
Protocol: (§8) ELISA for HIF-1a, MPG and MGMT. Protein expressions were assessed in all six glioma cell lines for all four groups of treatment (cell alone, cells with TMZ, cells with OKN, cells with combined OKN and TMZ). Cells were lysed before assaying. In brief, cells were washed by cold PBS gently, and then detached with trypsin, and collected by centrifugation at 1,000×g for 5 minutes. Then, cells were washed three times in cold PBS, then suspended in fresh lysis buffer. Lysates were centrifuged at 1,500×g for 10 minutes at 2-8° C. to remove cellular debris.
(§9) The assay is based on the sandwich ELISA principle. Each well of the supplied microtiter plate has been pre-coated with a target specific capture antibody. Standards or samples are added to the wells and the target antigen binds to the capture antibody. Unbound Standard or sample is washed away. A biotin-conjugated detection antibody is then added which binds to the captured antigen. Unbound detection antibody is washed away. An Avidin-Horseradish Peroxidase (HRP) conjugate is then added which binds to the biotin. Unbound Avidin-HRP conjugate is washed away. A TMB substrate is then added which reacts with the HRP enzyme resulting in color development. A sulfuric acid stop solution is added to terminate color development reaction and then the optical density (OD) of the well is measured at a wavelength of 450 nm±2 nm. The OD of an unknown sample can then be compared to an OD standard curve generated using known antigen concentrations in order to determine its antigen concentration.
(§10) The antigen concentration determined from ELISA was then normalized to the total protein concentration of each cell lysate in order to have comparison between groups. ELISA Kits for N-Methylpurine DNA Glycosylase (MPG) and for Hypoxia Inducible Factor 1 Alpha (HIF1a) were purchased from CLOUD-CLONE CORP.(CCC) and for Human MGMT from LifeSpan Biosciences, Inc.

HIF-1α [8] = assay: ELISA protein level in human GBM cell lysates; assay type: cell-based
Protocol: as §8, §9, §10

MPG [9] = assay: ELISA protein level in human GBM cell lysates; assay type: cell-based
Protocol: as §8, §9, §10

[10] = T98 cells (TMZ-resistant), UT 1.00
[11] = U251 cells (TMZ-sensitive), UT 1.00

For CC(C)(C)[N+]([O-])=Cc1ccccc1 [PBN, phenyl N-tert-butyl nitrone], the half-life [1] is listed as “about 132 minutes”, the “tumors with reduced tumor growth” value (C6 gliomas; post-treatment) is listed as about 50% and the “tumors with reduced growth” value (C6 gliomas; pre-treatment) is listed as over 80%. For the same compound, the “crossing of the blood brain barrier” value [2] was “easily penetrate the BBB”.

For O=NN(CCCl)C(=O)NC1CCCCC1 [Lomustine, 1-(2-chloroethyl)-3-cyclohexyl-1-nitrosourea], the “crossing of the blood brain barrier” value [2] is given as “crosses the blood brain barrier”.

For Cn1nnc2c(C(N)=O)ncn2c1=O [TMZ, Temozolomide, reference compound], the “incidence of severe nausea and vomiting (each)” value [3] is given as “around 4%”, the pIC50 (LN229 cells; Homo sapiens, LN-229, 72 h) is given as 3.97 and the pIC50 (LN229 cells; 72 hrs) is given as about 4.00. The pIC50 (T98 cells; Homo sapiens, T98, 72 h) was 3.36, the pIC50 (T98 cells; 72 hrs) was 3.35 and the “RT-PCR gene-fold change MGMT” value (MGMT [4]; LN18 cells (TMZ-resistant), UT 1.06) was 0.77 fold. The “RT-PCR gene-fold change MGMT” value (MGMT [4]; [10]) was 1.07 fold, the “RT-PCR gene-fold change MGMT” value (MGMT [4]; [11]) was 1.32 fold and the “RT-PCR gene-fold change MPG” value (MPG [5]; G55 cells (TMZ-resistant), UT 1.06) was 2.53 fold. For the same compound, the “RT-PCR gene-fold change MPG” value (MPG [5]; LN18 cells (TMZ-resistant), UT 1.00) was 2.95 fold, the “RT-PCR gene-fold change MPG” value (MPG [5]; LN229 cells (TMZ-sensitive), UT 1.10) was 1.22 fold and the “RT-PCR gene-fold change MPG” value (MPG [5]; T98 cells (TMZ-resistant), UT 1.10) was 1.22 fold. For the same compound, the “RT-PCR gene-fold change MPG” value (MPG [5]; U138 cells (TMZ-resistant), UT 1.13) was 7.14 fold, the “RT-PCR gene-fold change MPG” value (MPG [5]; U251 cells (TMZ-sensitive), UT 1.10) was 1.11 fold and the “RT-PCR gene-fold change HIF-1α” value (HIF-1α [6]; G55 cells (TMZ-resistant), UT 1.00) was 1.85 fold. For the same compound, the “RT-PCR gene-fold change HIF-1α” value (HIF-1α [6]; LN18 cells (TMZ-resistant), UT 1.03) was 2.11 fold, the “RT-PCR gene-fold change HIF-1α” value (HIF-1α [6]; LN229 cells (TMZ-sensitive), UT 1.00) was 1.41 fold and the “RT-PCR gene-fold change HIF-1α” value (HIF-1α [6]; [10]) was 1.72 fold. For the same compound, the “RT-PCR gene-fold change HIF-1α” value (HIF-1α [6]; U138 cells (TMZ-resistant), UT 1.00) was 2.05 fold, the “RT-PCR gene-fold change HIF-1α” value (HIF-1α [6]; [11]) was 1.48 fold and the pIC50 (LN18 cells) was 3.11. For the same compound, the pIC50 (U138 cells) was 3.35, the pIC50 (G55 cells; G55 (high) passage) was 4.03 and the pIC50 (G55 cells; G55 (low) passage) was 3.25. For the same compound, the pIC50 (U251 cells) was 3.75, the “ELISA protein level MGMT” value (MGMT [7]; G55 cells, UT 0.37) was 1.19 ng/mg cell lysate and the “ELISA protein level MGMT” value (MGMT [7]; LN18 cells, UT 1.23) was 1.28 ng/mg cell lysate. The “ELISA protein level MGMT” value (MGMT [7]; LN229 cells, UT 0.67) was 0.75 ng/mg cell lysate, the “ELISA protein level MGMT” value (MGMT [7]; T98 cells, UT 0.62) was 1.76 ng/mg cell lysate and the “ELISA protein level MGMT” value (MGMT [7]; U138 cells, UT 0.77) was 0.98 ng/mg cell lysate. For the same compound, the “ELISA protein level MGMT” value (MGMT [7]; U251 cells, UT 0.92) was 1.48 ng/mg cell lysate, the “ELISA protein level HIF-1α” value (HIF-1α [8]; G55 cells, UT 0.14) was 1.08 ng/mg cell lysate and the “ELISA protein level HIF-1α” value (HIF-1α [8]; LN18 cells, UT 0 76) was 0.83 ng/mg cell lysate. The “ELISA protein level HIF-1α” value (HIF-1α [8]; LN229 cells, UT 0.68) was 0.74 ng/mg cell lysate, the “ELISA protein level HIF-1α” value (HIF-1α [8]; T98 cells, UT 0.42) was 0.77 ng/mg cell lysate and the “ELISA protein level HIF-1α” value (HIF-1α [8]; U138 cells, UT 0.40) was 0.84 ng/mg cell lysate. For the same compound, the “ELISA protein level HIF-1α” value (HIF-1α [8]; U251 cells, UT 0.30) was 1.41 ng/mg cell lysate, the “ELISA protein level MPG” value (MPG [9]; G55 cells, UT 1.15) was 1.50 ng/mg cell lysate and the “ELISA protein level MPG” value (MPG [9]; LN18 cells, UT 2.18) was 2.27 ng/mg cell lysate. For the same compound, the “ELISA protein level MPG” value (MPG [9]; LN229 cells, UT 2.34) was 1.93 ng/mg cell lysate, the “ELISA protein level MPG” value (MPG [9]; T98 cells, UT 3.04) was 3.82 ng/mg cell lysate and the “ELISA protein level MPG” value (MPG [9]; U138 cells, UT 1.30) was 1.50 ng/mg cell lysate. The “ELISA protein level MPG” value (MPG [9]; U251 cells, UT 2.70) was 4.99 ng/mg cell lysate.

For CC[C@]1(O)C[C@H]2CN(CCc3c([nH]c4ccccc34)[C@@](C(=O)OC)(c3cc4c(cc3OC)N(C=O)[C@H]3[C@@](O)(C(=O)OC)[C@H](OC(C)=O)[C@]5(CC)C=CCN6CC[C@]43[C@@H]65)C2)C1 [Vincristine, vincaleukoblastine, a 22-oxo-, sulfate (1:1) (salt)], the “crossing of the blood brain barrier” value [2] is given as “does not appear to cross the blood brain barrier”.
